9 compounds from PubChem BioAssay (NCI) can be followed below.

Values joined by “and” are separate entries in the source; they are usually repeats but may differ in a detail not shown here. Identical values can stand only once.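 Growth conditions: 96-well plates. Treatment: test compound, 48 hours, 5 concentrations. Analysis: linear interpolation between bracketing concentrations; unreached endpoints set to highest concentration. Abbreviation: GI50, concentration required for 50% inhibition of growth. TGI: concentration producing complete growth inhibition.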 Bounds are passed on as bounds.

Among the test systems are CCRF-CEM leukemia; HL-60(TB) leukemia; HOP-62 NSCLC; HT29 colon; MDA-MB-231 breast; NCI-H23 lung; NCI-H522 lung; PC-3 prostate; SK-MEL-28 melanoma; SNB-75 CNS.
Test in all cases: NCI tumour cell line growth inhibition, 48 h

On to `Cc1cc(C)c2c(n1)sc1c(N)ncnc12`, for which the GI50 in the test on CCRF-CEM leukemia was over 25 µM; in the test with HL-60(TB) leukemia it was over 25 µM; in the test on HOP-62 NSCLC, over 25 µM; with HT29 colon it was 16.2 µM; in the test on MDA-MB-231 breast it was over 24 µM; in the test with NCI-H23 lung it was over 25 µM. Besides, the GI50 with NCI-H522 lung is over 25 µM; in the test with PC-3 prostate, over 25 µM; in the test on SK-MEL-28 melanoma, over 25 µM; in the test on SNB-75 CNS, over 20.8 µM. The TGI in the test with CCRF-CEM leukemia, in the test on HL-60(TB) leukemia, in the test with HOP-62 NSCLC, with HT29 colon, in the test on MDA-MB-231 breast and with NCI-H23 lung was over 25 µM throughout. For the same compound, the TGI in the test with NCI-H522 lung, in the test with PC-3 prostate, in the test on SK-MEL-28 melanoma and in the test with SNB-75 CNS was over 25 µM each time.

`C=C/C(C)=C/C[C@]1(C)[C@H](C)[C@@H](OC(=O)CCC)[C@H](O)[C@@]23C(=C[C@H](OC)C[C@@H]12)[C@@H](OC(=O)CCC)O[C@H]3OC(C)=O`: the GI50 with CCRF-CEM leukemia is 0.382 µM; in the test on HL-60(TB) leukemia, 0.228 µM; in the test on HOP-62 NSCLC it was 1.62 µM; in the test with HT29 colon it was 0.343 µM; in the test with MDA-MB-231 breast it was 0.857 µM; in the test with NCI-H23 lung, 1.19 µM. For the same compound, the GI50 in the test with NCI-H522 lung is 0.239 µM; in the test with PC-3 prostate, 0.511 µM; with SK-MEL-28 melanoma it was 0.431 µM; in the test with SNB-75 CNS, 1.21 µM. Besides, the TGI amounted to 1.66 µM with CCRF-CEM leukemia; 0.693 µM in the test with HL-60(TB) leukemia; 3.62 µM in the test on HOP-62 NSCLC; 1.42 µM with HT29 colon; 2.45 µM in the test with MDA-MB-231 breast; 2.83 µM in the test with NCI-H23 lung. Besides, the TGI is 0.741 µM in the test with NCI-H522 lung, 2.31 µM with PC-3 prostate, 1.63 µM in the test on SK-MEL-28 melanoma and 2.47 µM in the test with SNB-75 CNS.

With `Cn1c(=O)c2[nH]c(SCCN3CCOCC3)nc2n(C)c1=S`, the TGI with CCRF-CEM leukemia, in the test on HL-60(TB) leukemia, with HOP-62 NSCLC, in the test on HT29 colon, with MDA-MB-231 breast and with NCI-H23 lung was over 100 µM each time. For the same compound, the TGI in the test on NCI-H522 lung, in the test on PC-3 prostate, in the test on SK-MEL-28 melanoma and in the test on SNB-75 CNS was over 100 µM throughout.

For `CCn1c(-c2cc3c([nH]c4ccccc43)c(-c3cccc(O)c3)n2)n[nH]c1=S`, the GI50 in the test with CCRF-CEM leukemia is 2.93 µM; in the test with HOP-62 NSCLC, 4.71 µM; in the test with HT29 colon, 2.74 µM; with MDA-MB-231 breast it was 2.79 µM; in the test on NCI-H23 lung, 3.11 µM; with NCI-H522 lung it was 2.02 µM. Further, the results for the GI50 in the test with PC-3 prostate, with SK-MEL-28 melanoma and in the test on SNB-75 CNS were 2.77 µM, 2.63 µM and 1.26 µM, respectively. Also, the TGI in the test on CCRF-CEM leukemia is 12.4 µM; in the test with HOP-62 NSCLC it was 16 µM; with HT29 colon, 6.97 µM; in the test with MDA-MB-231 breast, 15.6 µM; in the test on NCI-H23 lung, 13.2 µM; with NCI-H522 lung, 7.07 µM. Also, the TGI is 13.3 µM in the test on PC-3 prostate, 12.3 µM in the test with SK-MEL-28 melanoma and 4.85 µM in the test with SNB-75 CNS.

For `COc1ccc2c(c1OC)-c1c(c3ccc([N+](=O)[O-])cc3c(=O)n1CCCBr)C2=O`, the GI50 is 16.9 µM with CCRF-CEM leukemia; 21.8 µM in the test on HOP-62 NSCLC; 55 µM in the test on MDA-MB-231 breast; 27.6 µM with NCI-H522 lung; 18.1 µM in the test on PC-3 prostate; 26.8 µM with SNB-75 CNS. The TGI in the test on CCRF-CEM leukemia is 80.9 µM; in the test on HOP-62 NSCLC, 58.5 µM; in the test with MDA-MB-231 breast, over 100 µM; in the test on NCI-H522 lung, over 100 µM; in the test on PC-3 prostate, over 100 µM; with SNB-75 CNS, 60.6 µM.

With `Cn1cccc1-c1cc(-c2ccccc2)[nH]c(=O)c1C#N`, the GI50 in the test on CCRF-CEM leukemia, in the test with HOP-62 NSCLC, in the test on HT29 colon, in the test with MDA-MB-231 breast, in the test with NCI-H23 lung and in the test with NCI-H522 lung was over 100 µM each time. Moreover, the GI50 with PC-3 prostate is over 100 µM; with SK-MEL-28 melanoma, over 100 µM; with SNB-75 CNS it was 45.1 µM. For the same compound, the TGI in the test on CCRF-CEM leukemia, with HOP-62 NSCLC, in the test on HT29 colon, in the test with MDA-MB-231 breast, in the test with NCI-H23 lung and in the test on NCI-H522 lung was over 100 µM in each case. The TGI with PC-3 prostate, in the test on SK-MEL-28 melanoma and in the test on SNB-75 CNS was over 100 µM in each case.

Consider `Cc1nc2ccc(Br)cc2c(=O)n1-c1ccc(NC2OCC(O)C(O)C2O)cc1` (stereo not given), for which the GI50 in the test with CCRF-CEM leukemia was 3.8 µM and 34.9 µM; in the test with HL-60(TB) leukemia, 34.9 µM and 73.1 µM; in the test with HT29 colon, 20.7 µM and > 100 µM; with MDA-MB-231 breast, 47.6 µM and > 100 µM; in the test on PC-3 prostate, 18.5 µM and > 100 µM; with SK-MEL-28 melanoma it was 26.2 µM and > 100 µM. For the same compound, the GI50 in the test on SNB-75 CNS was 38.7 µM and 92.3 µM. For the same compound, the TGI in the test with CCRF-CEM leukemia was 38 µM and > 100 µM; in the test on HL-60(TB) leukemia it was over 100 µM; in the test on HOP-62 NSCLC it was over 100 µM; with HT29 colon, 48.7 µM and > 100 µM; in the test with MDA-MB-231 breast it was over 100 µM; with PC-3 prostate, 86.9 µM and > 100 µM. Further, the TGI is 66.9 µM and > 100 µM in the test with SK-MEL-28 melanoma; over 100 µM in the test on SNB-75 CNS.

As to `C[Si](C)(c1ccc(C(=O)O)cc1)c1ccc(C(=O)O)cc1`, the TGI in the test on CCRF-CEM leukemia, with HOP-62 NSCLC, in the test with HT29 colon, with MDA-MB-231 breast, in the test with NCI-H23 lung and in the test on NCI-H522 lung was over 100 µM in each case. Further, the TGI in the test with PC-3 prostate, in the test on SK-MEL-28 melanoma and in the test with SNB-75 CNS was over 100 µM each time.

For the compound `COc1ccc(C(=O)c2cc3c(N)c(C(=O)Nc4ccccc4)sc3nc2C)cc1`, the GI50 with CCRF-CEM leukemia was 0.852 µM; in the test with HL-60(TB) leukemia, 0.5 µM; with HOP-62 NSCLC, 1.69 µM; in the test on HT29 colon it was 0.562 µM; with MDA-MB-231 breast it was 2.43 µM; with NCI-H23 lung, 2.54 µM. Further, the figures for the GI50 in the test on NCI-H522 lung, with PC-3 prostate and in the test with SNB-75 CNS were 1.89 µM, 2.77 µM and 0.242 µM, respectively. Further, the TGI is over 100 µM with CCRF-CEM leukemia; 26.3 µM with HL-60(TB) leukemia; over 100 µM in the test with HOP-62 NSCLC; over 100 µM with HT29 colon; over 100 µM in the test on MDA-MB-231 breast; over 100 µM in the test on NCI-H23 lung. For the same compound, the TGI was over 100 µM with NCI-H522 lung, over 100 µM in the test with PC-3 prostate and 5.92 µM in the test with SNB-75 CNS.
